Consider one compound from patent US20210379068A1, “METHODS AND MATERIALS FOR TREATING NEUROPSYCHIATRIC DISORDERS” (Mayo Foundation for Medical Education and Research, priority 2018, published 2021).

Entries after “also recorded” stand apart in the source; their conditions may differ.

What all share (assay type): in vivo, mouse
For one assay, the system named is INK-ATTAC mice. The assay can be described thus: Stone's T-maze, INK-ATTAC mice treated with AP20187. Particulars: chow/HFD INK-ATTAC mice; AP20187 vs vehicle. As to the method:
(§1) INK-ATTAC mice were injected intraperitoneally (i.p.) with AP20187 (10 mg/kg) or vehicle for 3 days every 2 weeks for a total of 8-10 weeks.
A water-motivated version of the Stone's T-maze was used to measure parameters of cognition. A straight run (for pre-training) or Stone's T-maze were placed into a steel pan filled with water to a depth of approximately 3 cm so that half the height of the interior walls of the maze were under water. The ceilings of both the straight run and maze were covered with clear acrylic to prevent mice from rearing out of the water. These dimensions created a situation that enables the mice to maintain contact with the floor while keeping their heads above water. The mice were placed into a start box and were pushed into the maze using a sliding panel. At the end of the straight run or maze there was a goal box that contains a ramp to a dry floor, which allows the mice to escape from the water upon successful completion of the straight run or maze. On day one, mice underwent straight run training to establish the concept that moving forward allows them to escape the water by reaching a water-free goal box. Successful completion of this phase requires the mice to reach the goal box in 10 seconds or faster in 8 out of 10 trials. […] Maze training commenced the following day. Mice had to complete 9 maze acquisition trials in a single day. […]

In a further assay the test system is db/db mice. In words: Open field test, off-target effects of AP in db/db mice. The note with it: AP 10 mg/kg i.p. 3 days every 2 weeks for 8 weeks. As to the method: For off target effect measurements db/db and HDF mice (fed with HFD for 2 months prior treatment) were injected intraperitoneally (i.p.) with […] at 10 mg/kg or vehicle for 3 days every 2 weeks for 8 weeks.
Locomotor activity and anxiety-like behavior of mice were assessed in sound-insulated, rectangular activity chambers (Med Associates Inc., St Albans, Vt., USA: W×L×D=27 cm×27 cm×20 cm with continually running fans, infrared lasers, and sensors). Beam breaks were assessed in 2-minute bins over 30 minutes, converted automatically to current mouse location and distance travelled (cm), and recorded on a computer with Med-PC software Version 4.0. Before the test, mice were acclimatized to the room for 1-1.5 hours before being introduced into the chambers. Mice were habituated for 5 minutes in the Open Field chamber (without recording) then placed for another 5 minutes in the home cage. Afterwards, mice were introduced back to the chambers and all mouse movements were recorded for 30 minutes. Anxiety was quantified by the distance mice travelled in the central 25% of the chamber (zone 1) as a function of the total distance mice travelled and by frequencies of entries into zone 1.

Assay [1] relates to senescent cells in the amygdala. The assay can be described thus: Telomere associated foci (TAF) in basomedial layer of the amygdala, INK-ATTAC mice. The note with it: HFD INK-ATTAC mice, AP20187 vs vehicle. As to the method: as §1
Paraffin sections were deparaffinized with Histoclear and hydrated in an ethanol gradient followed by water and PBS. Antigen was retrieved by incubation in 0.01M citrate buffer (pH 6.0) at 95° C. for 10 minutes. Slides were placed in blocking buffer (1:60 normal goat serum [S-1000, Vector Laboratories] in 0.1% BSA/PBS) for 60 minutes at room temperature. […] Primary antibodies used (Table 2) were diluted in blocking buffer and applied overnight at 4° C. The next day, slides were washed 3 times with PBS and incubated for 30 minutes with secondary goat, anti-rabbit antibody (1:200; Vector Laboratories #BA-1000) for TAF staining or for 60 minutes with secondary Alexa antibody (Table 1). For TAF staining, Fluorescein-Avidin in PBS (1:500; #A-2011, Vector Lab) was applied to each sample for 20 minutes. Slides were washed 3 times in PBS, which was followed by FISH for TAF detection. […]
A single, 3 μm-thick section per mouse was used for TAF staining, while for Dcx and Plin2 staining was performed on three 10 μm-thick sections 80 μm-apart. To quantify periventricular lipid accumulation 10-30 images in the periventricular region were taken using the DM5500 widefield fluorescence microscope from Leica with a 10× (for frequency of periventricular glia) or ×40 (for ALISE phenotype of ependymal cells) objective lens. Number of Plin2-positive cells (for frequency of ALISE-positive periventricular glia) or area of Plin2-positive vesicles (for ALISE phenotype of ependymal cells) was assessed using ImageJ software. For identity assessment of Plin2+ cells, 10 μm-thick sections were stained with combination of antibodies for Iba1 (secondary antibody conjugated with Alexa Fluor 488), Plin2 (secondary antibody conjugated with Alexa Fluor 594), and Vimentin (secondary antibody conjugated with Alexa Fluor 647) and quantified for frequency of Plin2+ astrocytes (Iba1−, Vim+) and microglia (Iba1+) in the periventricular region. […]

Regarding `CC[C@H](C(=O)N1CCCC[C@H]1C(=O)O[C@H](CCc1ccc(OC)c(OC)c1)c1cccc(OCC(=O)NCC(CNC(=O)COc2cccc([C@@H](CCc3ccc(OC)c(OC)c3)OC(=O)[C@@H]3CCCCN3C(=O)[C@@H](CC)c3cc(OC)c(OC)c(OC)c3)c2)CN(C)C)c1)c1cc(OC)c(OC)c(OC)c1` [AP], the “short-term memory (Stone's maze: time to finish, frequency of errors)” value with INK-ATTAC mice is reported as “not affected; also recorded: not altered”. For the same compound, the “anxiety-like behavior by open field test, off-target control” value with db/db mice is recorded as “no difference; also recorded: No off-target effects”. In addition, in assay [1], the “% of NeuN-pos cells with 2 or more TAF (TAF positive neurons), basomedial layer of the amygdala” value is on record as “significant decrease” and the “mean number of TAF in NeuN-pos cells, basomedial layer of the amygdala” value is “significantly reduced”. Further, the “% of NeuN-pos cells with 2 or more TAF (TAF positive neurons), basomedial layer of the amygdala” value in assay [1] (listed as AP20187) is “significantly reduced”.
